# Data published in patent US20040106802A1, “Novel compounds and therapeutic uses thereof” (TORRENT PHARMACEUTICALS LTD., priority 2002, published 2004).
# Where a name gives a salt, the structure may show the parent alone.
# Target: T1, Porcine DPP-IV (Sus scrofa, UniProt P22411)
# T1 construct: purchased Sigma-Aldrich Germany
# Experiment: Assay of DPP-IV enzyme inhibitory activity (spectrophotometric, Gly-Pro-pNA cleavage)
# Type: biochemical
# Settings: Porcine DPP-IV, Gly-Pro-pNA substrate, 30° C.; mean ± SD of three experiments except compound Nos. 133 & 139; read-out: IC50 (μM) Mean ± SD, inhibitory activity on DPP-IV enzyme activity
# Method: Assay of DPP-IV Enzyme Inhibitory Activity.
# The assay method is a modified method (as described by Welch et al, 1998) based on spectrophotometric determination of the product formed by penultimate proline cleaving activity of the enzyme.
# Assay protocol involves incubation of the enzyme dipeptidyl peptidase IV with the test substance at 30° C. for 30 min followed by addition of this reaction mixture to the substrate Gly-Pro-pNA that was equilibrated at 30° C. for 2 min. The enzyme cleaves the substrate at penultimate proline and releases p-nitroanilide, the optical density of which is measured at 385 nm. The formation of p-nitroanilide will be reduced in the presence of inhibitor. […] The activity of molecule is expressed in terms of % inhibition. At least three different concentrations were tried out for each of the test substances. The percentage inhibitions for each of the concentrations were plotted and an IC50 of the test compound was worked out. The enzyme inhibitory activity of different test compounds were compared based on the IC50 values.
# The percentage inhibition % I, is calculated using the formula:
# % I=[(1−vi/v0)]*100 where vi and v0 are the Vmax values with and without the test substance, respectively.
# Substrate solution: 0.5 mM in 45 mM phosphate buffer
# Substrate used: Gly-Pro-p-nitroanilide (Source: Sigma-Aldrich Co. Germany)
# 3.288 mg substrate in 1 ml 45 mM phosphate buffer was prepared as stock solution. 0.25 ml of this stock solution was diluted to 5 ml to get 0.5 mM substrate solution (90 μl to be added in each well). The stock solution of the substrate was used within three days of preparation.
# Enzyme solution: Porcine DPP-IV (Sigma-Aldrich Germany) was used throughout the study. 0.4 mU in 80 μl of Tris. HCl buffer was prepared. Fresh solutions were prepared everyday for the assays.
# Various concentrations of inhibitor were used: 0.391 μM, 0.781 μM, and 3.125 μM. Solutions of inhibitor were prepared and used on the same day.
# 280 μl of enzyme solution (0.4-mU/80 μl in Tris HCl buffer) was added to the eppendorf containing 70 μl solution of inhibitor or vehicle and mixed. This reaction mixture was incubated for 30 min at 30° C. The 96 well plate containing substrate solution was thermally equilibrated in the spectrophotometer for 2 min at 30° C. Later 100 μl of the enzyme-inhibitor pre-incubation solution was added to respective wells in a 96 well plate. Each concentration of the inhibitor was tested in triplicates.
# The rate of change in UV absorbance (in presence of various concentrations of the inhibitor) was measured at 385 nm, with respect to wells containing only 0.5 mM substrate in 45 mM phosphate buffer as blank at every 10 min for 2 hours after adding enzyme-inhibitor mixture to wells containing substrate solution.
# T1 sequence (P22411 whole entry): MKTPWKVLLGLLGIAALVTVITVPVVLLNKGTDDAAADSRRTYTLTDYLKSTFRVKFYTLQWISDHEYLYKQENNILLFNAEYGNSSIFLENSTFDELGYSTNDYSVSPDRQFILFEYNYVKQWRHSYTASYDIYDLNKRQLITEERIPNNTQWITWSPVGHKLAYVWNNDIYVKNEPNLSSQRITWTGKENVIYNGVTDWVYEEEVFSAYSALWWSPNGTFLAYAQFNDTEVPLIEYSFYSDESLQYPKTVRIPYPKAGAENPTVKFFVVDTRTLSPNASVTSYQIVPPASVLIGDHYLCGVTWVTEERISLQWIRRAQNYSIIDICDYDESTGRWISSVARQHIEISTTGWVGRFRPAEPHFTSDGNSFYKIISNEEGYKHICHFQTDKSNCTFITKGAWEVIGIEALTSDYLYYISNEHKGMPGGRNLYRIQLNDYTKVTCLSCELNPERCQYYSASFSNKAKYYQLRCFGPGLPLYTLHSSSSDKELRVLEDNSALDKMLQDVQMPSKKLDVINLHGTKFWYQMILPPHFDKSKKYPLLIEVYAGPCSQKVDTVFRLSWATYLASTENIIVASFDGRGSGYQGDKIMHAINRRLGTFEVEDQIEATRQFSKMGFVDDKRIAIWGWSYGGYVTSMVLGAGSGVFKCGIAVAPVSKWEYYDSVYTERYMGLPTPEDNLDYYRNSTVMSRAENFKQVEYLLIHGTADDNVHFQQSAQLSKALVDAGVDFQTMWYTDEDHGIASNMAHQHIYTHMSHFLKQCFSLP
row,Compound,IC50 [µM]
1,"CC(C)(C)C(=O)N1CCC(N(N)CC(=O)N2CSCC2C#N)CC1 (centres unmarked) [Compound No. 76, 3-[1-Oxo-2-(1-(1-(tert-butylcarbonyl)-piperidin-4-yl) hydrazino)]ethyl-4-cyanothiazolidine trifluoroacetate]",4.15 ± 0.29
2,"N#CC1CSCN1C(=O)CN(N)C1CCN(Cc2ccccc2)CC1 (centres unmarked) [Compound No. 81, 3-[1-Oxo-2-[1-(1-phenylmethyl-piperidin-4-yl)]-hydrazino]-ethyl-4-cyanothiazolidine trifluoroacetate]",1.63 ± 0.15
3,"CCC(C)N(N)CC(=O)N1CSCC1C#N (centres unmarked) [Compound No. 23, 3-[1-Oxo-2-((1-methylpropyl)hydrazino)]ethyl-4-cyano thiazolidine trifluoroacetate]",2.94 ± 0.15
4,"N#CC1CSCN1C(=O)CN(N)Cc1ccccc1 (centres unmarked) [Compound No. 16, 3-[1-Oxo-2-((1-phenylmethyl)hydrazino)]ethyl-4-cyano thiazolidine trifluoroacetate]",9.29 ± 0.64
5,"N#Cc1ccc(NC(=O)CNC2CCC(N(N)CC(=O)N3CSCC3C#N)CC2)cc1 (centres unmarked) [Compound No. 112, 3-[1-oxo-2-[1-(4-(2-oxo-2-(4-cyanophenyl)aminoethyl)aminocyclohex-1-yl)]hydrazino]ethyl-4-cyanothiazolidine bis-trifluoroacetate]",1.47 ± 0.07
6,"Cc1ccc(S(=O)(=O)N2CCC(NN(C)CC(=O)N3CSCC3C#N)CC2)cc1 (centres unmarked) [Compound No. 56, 3-[1-Oxo-2-[1-methyl-2-(1-(4-methylphenylsulphonyl)-piperidin-4-yl)]hydrazino]ethyl-4-cyanothiazolidine trifluoroacetate]",44.2 ± 1.36
7,"N#CC1CSCN1C(=O)CN(N)C1CCN(C(=O)c2cccc(Cl)c2Cl)CC1 (centres unmarked) [Compound No. 70, 3-[1-Oxo-2-(1-(1-(2,3-dichlorophenylcarbonyl)-piperidin-4-yl) hydrazino)]ethyl-4-cyanothiazolidine trifluoroacetate]",1.79 ± 0.12
8,"N#CC1CSCN1C(=O)CN(N)C1CCNCC1 (centres unmarked) [Compound No. 72, 3-[1-Oxo-2-(1-(4-piperidinyl) hydrazino)]ethyl-4-cyanothiazolidine bis trifluoroacetate]",12.1 ± 0.13
9,"CC1CCC(NNCC(=O)N2CCCC2C#N)CC1 (centres unmarked) [Compound No. 37, 1-[1-Oxo-2-(4-methylcyclohexyl)hydrazino]ethyl-2-cyanopyrrolidine trifluoroacetate]",28.3 ± 4.6
10,"N#CC1CSCN1C(=O)CN(N)C1CCN(CC(=O)NC2CCCCC2)CC1 (centres unmarked) [compound 125, 3-[1-oxo-2-(1-(1-(2-oxo-2-cyclohexyl)aminoethyl)piperidin-4-yl)hydrazino]ethyl-4-cyanothiazoline, bis-trifluoroacetate]",0.506 ± 0.06
11,"N#CC1CSCN1C(=O)CN(N)C1CCN(Cc2ccc([N+](=O)[O-])cc2)CC1 (centres unmarked) [Compound No. 61, 3-[1-Oxo-2-(1-(1-(4-nitrophenylmethyl)-piperidin-4-yl) hydrazino]ethyl-4-cyanothiazolidine trifluoroacetate]",0.7 ± 0.03
12,"CC(C)NN(CC(=O)N1CSCC1C#N)C1CCCCC1 (centres unmarked) [Compound No. 36, 3-[1-Oxo-2-(1-cyclohexyl-2-isopropyl) hydrazino]ethyl-4-cyanothiazolidine hydrochloride]",23.3 ± 2.54
13,"COC(=O)NN(CC(=O)N1CSCC1C#N)C1CCN(CC(=O)Nc2ccc(Cl)cn2)CC1 (centres unmarked) [compound 133, 3-[1-oxo-2-(1-(1-(2-oxo-2-(5-chloropyridin-2-yl)aminoethyl)piperidine-4-yl)-2-methoxycarbonyl)hydrazino]ethyl-4-cyanothiazolidine, trihydrochloride]",40.4 ± 6.4
14,"CCN(CC)NCC(=O)N1CSCC1C#N (centres unmarked) [Compound No. 13, 1-[1-Oxo-2-((2,2-diethyl)-hydrazino)]ethyl-2-cyano thiazolidine]",57.1 ± 3.76
15,"CC1CC(N(N)CC(=O)N2CSCC2C#N)CC(C)(C)C1 (centres unmarked) [Compound No. 79, 3-[1-Oxo-2-(1-(3,3,5-trimethylcyclohexyl)-hydrazino)]ethyl-4-cyanothiazolidine trifluoroacetate]",0.92 ± 0.03
16,"N#CC1CSCN1C(=O)CN(N)C1CCN(CC(=O)NC2CC2)CC1 (single isomer, unassigned) [compound 146, 3-[1-oxo-2-(1-(1-(2-cyclopropyl-1-yl)aminoethyl)piperidin-4-yl)) hydrazino]ethyl-4-cyano thiazolidine, dihydrochloride]",217 ± 9.07

row,Compound,IC50 [µM]
1,CC(C)OCCCNC(=O)CN1CCC(N(N)CC(=O)N2CSCC2C#N)CC1 (centres unmarked) [compound 126],0.468 ± 0.005
2,"N#CC1CCCN1CC(=O)NN(CC(=O)N1CCCC1C#N)C1CCCCC1 (centres unmarked) [Compound No. 45, 1-[1-Oxo-2-[(1-cyclohexyl)-2-(2-cyano-1-pyrrolidinoacetyl)]hydrazino]ethyl-2-cyanopyrrolidine trifluoroacetate]",44 ± 1.92
3,"CC(=O)N1CCC(N(N)CC(=O)N2CSCC2C#N)CC1 (centres unmarked) [Compound No. 66, 3-[1-Oxo-2-(1-(1-acetyl)-piperidin-4-yl)hydrazino]ethyl-4-cyanothiazolidine trifluoroacetate]",1.53 ± 0.01
4,N#CC1CSCN1C(=O)CN(N)C1CCN(CCOc2ccccc2)CC1 (centres unmarked) [compound 123],0.676 ± 0.07
5,"CN(CC(=O)N1CSCC1C#N)NC1CCN(Cc2ccc(C#N)cc2)CC1 (centres unmarked) [Compound No. 58, 3-[1-Oxo-2-[1-methyl-2-(1-(4-cyanophenylmethyl)piperidin-4-yl)]hydrazino]ethyl-4-cyanothiazolidine bis trifluoroacetate]",17.1 ± 0.3
6,"CC1CCC(NNCC(=O)N2CCCC2C#N)CC1 (centres unmarked) [Compound No. 26, 1-[1-Oxo-2-((4-Methyl)cyclohexyl)hydrazino)]ethyl-2-cyano pyrrolidine trifluoroacetate]",10 ± 0.79
7,"CC(C)(C)C1CCC(N(N)CC(=O)N2CSCC2C#N)CC1 (centres unmarked) [Compound No. 47, 3-[1-Oxo-2-(1-(4-tert-butylcyclohexyl)hydrazino)]ethyl-4-cyanothiazolidine trifluoro acetate]",1.14 ± 0.09
8,"CC1CCC(N(CC(=O)N2CSCC2C#N)NC2CCN(C(C)C)CC2)CC1 (centres unmarked) [Compound No. 54, 3-[1-Oxo-2-[1-(4-methylcyclohexyl)-2-(1-isopropyl-4-piperidinyl)]hydrazino]ethyl-4-cyanothiazolidine]",6.43 ± 0.15
9,"N#CC1CSCN1C(=O)CN(N)C1CCN(CC(=O)N2CCOCC2)CC1 (centres unmarked) [Compound No. 107, 3-[1-oxo-2-[1-(1-(−2-oxo-2(morpholin-4-yl)ethyl)piperidin-4-yl)]hydrazino]ethyl-4-cyanothiazolidine bis-trifluoroacetate]",0.525 ± 0.098
10,"N#CC1CCCN1C(=O)CN(N)C1CCCCCC1 (centres unmarked) [Compound No. 30, 1-[1-Oxo-2-((1-Cycloheptyl)-hydrazino)]ethyl-2-cyano pyrrolidine trifluoroacetate]",35.1 ± 2.66
11,"N#CC1CSCN1C(=O)CN(NC(=O)NCCc1ccccn1)C(=O)NCCc1ccccn1 (centres unmarked) [Compound No. 46, 3-[1-Oxo-2-(1,2-bis-(2-(2-pyridyl)ethylaminocarbonyl)hydrazino)]ethyl-4-cyano thiazolidine bis trifluoroacetate]",78.6 ± 4.58
12,"N#CC1CCCN1C(=O)CN(N)C1CCCC1 (centres unmarked) [Compound No. 18, 1-[1-Oxo-2-((1-Cyclopentyl)-hydrazino)]ethyl-2-cyano pyrrolidine trifluoroacetate]",32.1 ± 1.65
13,"CC(=O)NN(CC(=O)N1CSCC1C#N)C1CCC(C)CC1 (centres unmarked) [Compound No. 74, 3-[1-Oxo-2-(1-(4-methylcyclohexyl)-2-acetyl) hydrazino]ethyl-4-cyanothiazolidine]",97.7 ± 13.1
14,N#CC1CSCN1CC(=O)NN(CC(=O)N1CCCC1C#N)C1CCCCC1 (centres unmarked) [Compound No. 50],60.1 ± 5.5
15,"N#CC1CCCN1C(=O)CN(N)C1CCN(CC(=O)Nc2ccc(Cl)cn2)CC1 (centres unmarked) [compound 124, 3-[1-oxo-2-(1-(1-(2-oxo-2-(5-chloropyridin-2-yl)aminoethyl)piperidin-4-yl))hydrazino]ethyl-2-cyanopyrrolidine, tris-trifluoroacetate]",3.7 ± 0.5

# Same assay, conditions: Porcine DPP-IV, Gly-Pro-pNA substrate, 30° C.; mean ± SD of three experiments except compound Nos. 133 & 139; trihydrochloride; read-out: IC50 (μM) Mean ± SD, inhibitory activity on DPP-IV enzyme activity
row,Compound,IC50 [µM]
1,"N#CC1CSCN1C(=O)CN(N)C1CCN(CC(=O)Nc2nc3ccccc3s2)CC1 (centres unmarked) [compound 144, 3-[1-oxo-2-(1-(1-(2-oxo-2-(benzothiazole-2-yl)aminoethyl)piperidine-4-yl)) hydrazine]ethyl-4-cyanothiazolidine, trihydrochloride]",0.167 ± 0.007
